In patent publication US12060351B2, “Thiadiazole IRAK4 inhibitors” (Gilead Sciences, Inc., priority 2018, dated 2024):

Each compound was assayed on TNFα (assay: IRAK4 Monocyte TNFα Cell Based Assay (LPS-stimulated, TR-FRET TNFα detection)). Settings: Homo sapiens, Monocyte, human monocytes, LPS-stimulated; Table 2 second part (compounds 33-343); read-out: EC50 MONO TNF HTRF.
Set-up: species or system human
Method: IRAK4 Monocyte TNFα Cell Based Assay Procedure:
The cell suspension was then plated at a density of 5,000 cells/well onto black 384 well Greiner clear bottom plates. Plates were pre-spotted with test compounds and serially diluted in DMSO where 40 nL/well were delivered using the Echo 550 acoustic liquid dispenser (Labcyte®) for a final DMSO concentration of 0.1%. Plated cells were treated with compound for 1 hour at 37° C. Cells were then stimulated with 50 pg/ml of LPS (Sigma) excluding outside columns of plate used for unstimulated cell control wells. Cells were incubated for an additional 4 hours at 37° C. Cells were then spun out of the media and 5 μl of sample were taken and analyzed for total TNFα content using the TR-FRET Human TNFα detection system (CisBio). This system utilizes two labeled antibodies (cryptate and XL665) that bind to two different epitopes of the TNFα molecule and produce FRET signal proportional to the concentration of TNFα in the sample. Detection antibodies are mixed 50:50 and 5 μL were dispensed into each well. Plates were covered with clear seals and incubated at room temp overnight. […] Percent of control was calculated as follows: % Control=100×(RatioSample−Ratio0% Stimulation)/(Ratio100% Stimulation−Ratio0% Stimulation) where unstimulated cells (0% stimulation) were the negative control and stimulated cells (100% stimulation) were used as the positive control.
`CC(C)Nc1cc(-c2ccc3cc(C#N)cnn23)ncc1-c1nnc(N2CCS(=O)(=O)CC2)s1` [Compound 257, 7-(5-(5-(1,1-dioxidothiomorpholino)-1,3,4-thiadiazol-2-yl)-4-(isopropylamino)pyridin-2-yl)pyrrolo[1,2-b]pyridazine-3-carbonitrile] gave an EC50 of no less than 10000 nM. Compound `CC(=O)N[C@@H]1[C@@H]2CC[C@H]1CN(c1nnc(-c3cnc(-c4ccc5cc(C#N)cnn45)cc3N[C@H](C)C#N)s1)C2` [Example 53, N-((1R,5S,8S)-3-(5-(4-(((R)-1-cyanoethyl)amino)-6-(3-cyanopyrrolo[1,2-b]pyridazin-7-yl)pyridin-3-yl)-1,3,4-thiadiazol-2-yl)-3-azabicyclo[3.2.1]octan-8-yl)acetamide] has an EC50 of 0.6 nM. `CC(=O)NC12CCC(c3nnc(-c4cnc(-c5ccc6cc(C#N)cnn56)cc4N[C@H](C)C#N)s3)(CC1)CC2` [Example 72, (R)-N-(4-(5-(4-((1-cyanoethyl)amino)-6-(3-cyanopyrrolo[1,2-b]pyridazin-7-yl)pyridin-3-yl)-1,3,4-thiadiazol-2-yl)bicyclo[2.2.2]octan-1-yl)acetamide] gave an EC50 of 2.8 nM. For `CC(C)Nc1cc(-c2ccc3cc(C#N)cnn23)ncc1-c1nnc(N2C[C@H]3CC[C@@H](C2)[C@@H]3NC(=O)[C@@H](C)O)s1` [Example 90, (R)-N-((1R,5S,8s)-3-(5-(6-(3-cyanopyrrolo[1,2-b]pyridazin-7-yl)-4-(isopropylamino)pyridin-3-yl)-1,3,4-thiadiazol-2-yl)-3-azabicyclo[3.2.1]octan-8-yl)-2-hydroxypropanamide], the EC50 was 3.6 nM. Work on `CC(C)Nc1cc(-c2ccc3cc(C#N)cnn23)ncc1-c1nnc(N2C[C@H]3CC[C@@H](C2)[C@@H]3NC(=O)N2CCN(C)CC2)s1` [Example 96, N-((1R,5S,8s)-3-(5-(6-(3-cyanopyrrolo[1,2-b]pyridazin-7-yl)-4-(isopropylamino)pyridin-3-yl)-1,3,4-thiadiazol-2-yl)-3-azabicyclo[3.2.1]octan-8-yl)-4-methylpiperazine-1-carboxamide] yielded an EC50 of 2.3 nM. `CC(=O)N1CCN(C(=O)N[C@@H]2[C@@H]3CC[C@H]2CN(c2nnc(-c4cnc(-c5ccc6cc(C#N)cnn56)cc4NC(C)C)s2)C3)CC1` [Example 104, 4-acetyl-N-((1R,5S,8s)-3-(5-(6-(3-cyanopyrrolo[1,2-b]pyridazin-7-yl)-4-(isopropylamino)pyridin-3-yl)-1,3,4-thiadiazol-2-yl)-3-azabicyclo[3.2.1]octan-8-yl)piperazine-1-carboxamide] showed an EC50 of 1.7 nM. `CC(C)Nc1cc(-c2ccc3cc(C#N)cnn23)ncc1-c1nnc(N2C[C@H]3CC[C@@H](C2)[C@@H]3NC(=O)N2CCN(C3COC3)CC2)s1` [Example 116, N-((1R,5S,8s)-3-(5-(6-(3-cyanopyrrolo[1,2-b]pyridazin-7-yl)-4-(isopropylamino)pyridin-3-yl)-1,3,4-thiadiazol-2-yl)-3-azabicyclo[3.2.1]octan-8-yl)-4-(oxetan-3-yl)piperazine-1-carboxamide] gave an EC50 of 4.1 nM. For `CC(C)Nc1cc(-c2ccc3cc(C#N)cnn23)ncc1-c1nnc(C2CCNCC2)s1` [Example 129, 7-(4-(isopropylamino)-5-(5-(piperidin-4-yl)-1,3,4-thiadiazol-2-yl)pyridin-2-yl)pyrrolo[1,2-b]pyridazine-3-carbonitrile], the EC50 was 21.7 nM. With `CC(C)Nc1cc(-c2ccc3cc(C#N)cnn23)ncc1-c1nnc([C@H]2C[C@@H](NC(=O)C3CC3)C2)s1` [Example 281, N-((1s,3s)-3-(5-(6-(3-cyanopyrrolo[1,2-b]pyridazin-7-yl)-4-(isopropylamino)pyridin-3-yl)-1,3,4-thiadiazol-2-yl)cyclobutyl)cyclopropanecarboxamide] the EC50 was 8280 nM. `CC(C)Nc1cc(-c2ccc3cc(C#N)cnn23)ncc1-c1nnc([C@H]2C[C@H](NC3COC3)C2)s1` [Example 283, 7-(4-(isopropylamino)-5-(5-((1r,3r)-3-(oxetan-3-ylamino)cyclobutyl)-1,3,4-thiadiazol-2-yl)pyridin-2-yl)pyrrolo[1,2-b]pyridazine-3-carbonitrile] was tested, and the EC50 was 19.9 nM. `CC(C)(O)C(=O)NC12CCC(c3nnc(-c4cnc(-c5ccc6cc(C#N)cnn56)cc4NC4CCOCC4)s3)(CC1)CC2` [Example 337, N-(4-(5-(6-(3-cyanopyrrolo[1,2-b]pyridazin-7-yl)-4-((tetrahydro-2H-pyran-4-yl)amino)pyridin-3-yl)-1,3,4-thiadiazol-2-yl)bicyclo[2.2.2]octan-1-yl)-2-hydroxy-2-methylpropanamide] showed an EC50 of 3.3 nM.

Same assay, conditions: Homo sapiens, Monocyte, read-out: EC50 MONO TNF HTRF
`C[C@H](C#N)Nc1cc(-c2ccc3cc(C#N)cnn23)ncc1-c1nnc(N2CC3CC(C2)N3C(=O)C(C)(C)O)s1` [Example 115, 7-(4-(((R)-1-cyanoethyl)amino)-5-(5-(6-(2-hydroxy-2-methylpropanoyl)-3,6-diazabicyclo[3.1.1]heptan-3-yl)-1,3,4-thiadiazol-2-yl)pyridin-2-yl)pyrrolo[1,2-b]pyridazine-3-carbonitrile] was tested, and the EC50 was 3.5 nM.

Same assay, conditions: human monocytes, LPS-stimulated; Table 2 second part (compounds 33-343); read-out: EC50 MONO TNF HTRF
Work on `CC(C)Nc1cc(-c2ccc3cc(C#N)cnn23)ncc1-c1nnc(N2CC3CC(C2)N3C(=O)CN=S(C)(C)=O)s1` [Example 107, 7-(5-(5-(6-(2-((dimethyl(oxo)-16-sulfanylidene)amino)acetyl)-3,6-diazabicyclo[3.1.1]heptan-3-yl)-1,3,4-thiadiazol-2-yl)-4-(isopropylamino)pyridin-2-yl)pyrrolo[1,2-b]pyridazine-3-carbonitrile] yielded an EC50 of 18.4 nM. In the case of `CC1(Nc2cc(-c3ccc4cc(C#N)cnn34)ncc2-c2nnc(N3CC4CC(C3)N4C(=O)C(C)(C)O)s2)COC1` [Example 112, 7-(5-(5-(6-(2-hydroxy-2-methylpropanoyl)-3,6-diazabicyclo[3.1.1]heptan-3-yl)-1,3,4-thiadiazol-2-yl)-4-((3-methyloxetan-3-yl)amino)pyridin-2-yl)pyrrolo[1,2-b]pyridazinc-3-carbonitrile], the EC50 is reported as 13.1 nM.
